# Assay results: PMC8067507, “Aryl Urea Based Scaffolds for Multitarget Drug Discovery in Anticancer Immunotherapies” (Pharmaceuticals, 2021)
# Columns and labels:
# [1] = tested on: HMEC-1 (human microvascular endothelial cells); experiment: Cell proliferation assay (MTT); format: cell-based; details: HMEC-1, 48 h, 2 days incubation, average ± SD of three experiments
# Description: (§1) The ability of Ureas 13–33 to inhibit cell proliferation was established by means of their IC50 values towards the human tumor cell lines HT-29 (colon adenocarcinoma), MCF-7 (breast adenocarcinoma), HeLa (epithelioid cervix carcinoma) and A549 (pulmonary adenocarcinoma), as well as towards the endothelial cell line HMEC-1 (human microvascular endothelial cells) and the non-tumor cell line HEK-293 (human embryonic kidney cells).
# (§2) HT-29, MCF-7, HeLa, A549 and HEK-293 cell lines were maintained in Dulbecco’s modified Eagle’s medium (DMEM) containing glucose (1 g/L), glutamine (2 mM), penicillin (50 μg/mL), streptomycin (50 μg/mL), and amphotericin B (1.25 μg/mL), supplemented with 10% FBS. HMEC-1 cell line was maintained in Dulbecco’s modified Eagle’s medium (DMEM)/low glucose containing glutamine (2 mM), penicillin (50 μg/mL), streptomycin (50 μg/mL), and amphotericin B (1.25 μg/mL), supplemented with 10% FBS. For the development of tube formation assays in Matrigel, HMEC-1 cells were cultured in EGM-2MV Medium supplemented with EGM-2MV SingleQuots.
# (§3) In 96-well plates, 3 × 10^3 (HeLa, A549, HMEC-1, HEK-293) or 5 × 10^3 (HT-29, MCF-7) cells per well were incubated with serial dilutions of the tested compounds in a total volume of 100 μL of their respective growth media. The 3-(4,5-dimethylthiazol-2-yl)-2,5-diphenyltetrazolium bromide (MTT; Sigma Chemical Co.) dye reduction assay in 96-well microplates was used. After 2 days of incubation (37 °C, 5% CO2 in a humid atmosphere), 10 μL of MTT (5 mg/mL in phosphate-buffered saline, PBS) was added to each well, and the plate was incubated for a further 3 h (37 °C). After that, the supernatant was discarded and replaced by 100 µL of DMSO to dissolve formazan crystals. The absorbance was then read at 540 nm by spectrophotometry. For all concentrations of compound, cell viability was expressed as the percentage of the ratio between the mean absorbance of treated cells and the mean absorbance of untreated cells. Three independent experiments were performed, and the IC50 values (i.e., concentration half inhibiting cell proliferation) were graphically determined using GraphPad Prism 4 software.
# [2] = tested on: HeLa (epithelioid cervix carcinoma); experiment: Cell proliferation assay (MTT); format: cell-based; details: Homo sapiens, 48 h, 2 days incubation, average ± SD of three experiments
# Description: as §1, §2, §3
# [3] = tested on: MCF-7 (breast adenocarcinoma); experiment: Cell proliferation assay (MTT); format: cell-based; details: Homo sapiens, MCF7, 48 h, 2 days incubation, average ± SD of three experiments
# Description: as §1, §2, §3
# [4] = tested on: HMEC-1 cells; experiment: Tube formation inhibition assay; format: cell-based, human; details: HMEC-1 on Matrigel, 20 h incubation; average of three experiments
# Method: as §2
# Wells of an IBIDI μ-slide angiogenesis (IBIDI, Martinsried, Germany) were coated with 12 μL of Matrigel® (10 mg/mL, BD Biosciences) at 4 °C. After gelatinization at 37 °C for 30 min, HMEC-1 cells were seeded at 2 × 10^4 cells/well in 35 μL of culture medium on top of the Matrigel and were incubated 30 min at 37 °C while are attached. Then, compounds were added dissolved in 35 μL of culture medium and after 20 h of incubation at 37 °C, tube destruction was evaluated.
# [5] = biological target: T1, PD-L1 (Homo sapiens, UniProt Q9NZQ7); experiment: PD-L1 quantification by flow cytometry in HT-29; format: cell-based; details: HT-29, 10 μM, 24 h, referred to control (DMSO)
# T1 sequence (Q9NZQ7 19-290): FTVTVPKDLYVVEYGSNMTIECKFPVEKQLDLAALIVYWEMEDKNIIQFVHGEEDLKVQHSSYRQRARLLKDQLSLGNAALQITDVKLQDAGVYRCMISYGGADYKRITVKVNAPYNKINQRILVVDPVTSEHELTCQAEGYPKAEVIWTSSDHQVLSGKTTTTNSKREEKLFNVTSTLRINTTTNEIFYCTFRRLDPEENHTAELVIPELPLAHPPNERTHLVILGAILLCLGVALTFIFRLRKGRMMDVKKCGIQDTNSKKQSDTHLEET
# Method: (§4) We evaluated the effect of the selected compounds on PD-L1 and on c-Myc proteins by flow cytometry after 24 h treatment at 10 μM concentration of compounds. Both, PD-L1 and c-Myc were relatively determined using DMSO treated cells as a negative control and BMS-8 as a positive one.
# (§5) For the detection of total PD-L1 and c-Myc, cancer cells were seeded (3 × 10^5 cells/well) in 6-well plates and were incubated with the corresponding compounds for 24 h. Then they were collected, fixed, treated with 0.5% Triton^TM X-100 and stained with Alexa Fluor® 647 Rabbit monoclonal Anti-PD-L1 (ab215251) and FITC Rabbit monoclonal anti-c-Myc (ab223913).
# (§6) We also checked results performing ELISA tests. For ELISA tests, lysates were collected, protein quantification was carried out by Bradford test and, then, PD-L1 and c-Myc were quantified using Human PD-L1 ELISA Kit 28-8 (ab214565) and c-Myc (Total) Human ELISA Kit (KHO2041), respectively, according to the manufacturer’s instructions.
# [6] = tested on: c-Myc; experiment: c-Myc quantification by flow cytometry in HT-29; format: cell-based, human; details: HT-29, 10 μM, 24 h, referred to control (DMSO)
# Method: as §4, §5, §6
# [7] = tested on: c-Myc; experiment: c-Myc quantification by flow cytometry in A-549; format: cell-based, human; details: A-549, 10 μM, 24 h, referred to control (DMSO)
# Method: as §4, §5, §6
# [8] = tested on: HT-29 cells; experiment: Cell proliferation evaluation in co-cultures: HT-29 with Jurkat T cells; format: cell-based, human; details: 24 h
# Method: We also studied the effect of Compounds 16, 23, 26 and 33 on tumor cell proliferation in the presence of PD-1 expressing Jurkat T-cells. For this assay, first interferon γ stimulated HT-29 cells were treated for 24 h with the selected compounds at 10 µM in presence of Jurkat T cells. Then, living cells were counted using trypan blue and a Neubauer chamber and by flow cytometry.
# In 12-well plates, 10^5 HT-29 cells per well were seeded and incubated for 24 h with cell culture medium supplemented with IFN-γ (10 ng/mL; human, Invitrogen®) then medium was change by one containing 4 × 10^5 Jurkat T cells per well and 10 μM of the corresponding compound or DMSO for the control. After 24 h of incubation, supernatants were collected to determine Jurkat T cell living cells and, on the other hand, HT-29 cells were collected with trypsin. Both types of suspension cells were counted with the Neubauer chamber and trypan blue and also by flow cytometry.
# [9] = biological target: T1, PD-L1; experiment: PD-L1 quantification by flow cytometry in A-549; format: cell-based; design: endogenous in cells; host or cells: A-549 cancer cells; details: A-549, 10 μM, 24 h, referred to control (DMSO)
# Method: as §4, §5, §6
# [10] = biological target: VEGFR-2 (Homo sapiens, UniProt P35968); experiment: VEGFR-2 quantification by flow cytometry in HMEC-1; format: cell-based; design: Both membrane and total VEGFR-2 were relatively determined using dimethyl sulfoxide (DMSO) treated cells as a negative control; endogenous in cells; host or cells: HMEC-1 (human microvascular endothelial cells); details: 10 µM, 24 h, relative to DMSO control
# Chain of VEGFR-2 (P35968 20-1356): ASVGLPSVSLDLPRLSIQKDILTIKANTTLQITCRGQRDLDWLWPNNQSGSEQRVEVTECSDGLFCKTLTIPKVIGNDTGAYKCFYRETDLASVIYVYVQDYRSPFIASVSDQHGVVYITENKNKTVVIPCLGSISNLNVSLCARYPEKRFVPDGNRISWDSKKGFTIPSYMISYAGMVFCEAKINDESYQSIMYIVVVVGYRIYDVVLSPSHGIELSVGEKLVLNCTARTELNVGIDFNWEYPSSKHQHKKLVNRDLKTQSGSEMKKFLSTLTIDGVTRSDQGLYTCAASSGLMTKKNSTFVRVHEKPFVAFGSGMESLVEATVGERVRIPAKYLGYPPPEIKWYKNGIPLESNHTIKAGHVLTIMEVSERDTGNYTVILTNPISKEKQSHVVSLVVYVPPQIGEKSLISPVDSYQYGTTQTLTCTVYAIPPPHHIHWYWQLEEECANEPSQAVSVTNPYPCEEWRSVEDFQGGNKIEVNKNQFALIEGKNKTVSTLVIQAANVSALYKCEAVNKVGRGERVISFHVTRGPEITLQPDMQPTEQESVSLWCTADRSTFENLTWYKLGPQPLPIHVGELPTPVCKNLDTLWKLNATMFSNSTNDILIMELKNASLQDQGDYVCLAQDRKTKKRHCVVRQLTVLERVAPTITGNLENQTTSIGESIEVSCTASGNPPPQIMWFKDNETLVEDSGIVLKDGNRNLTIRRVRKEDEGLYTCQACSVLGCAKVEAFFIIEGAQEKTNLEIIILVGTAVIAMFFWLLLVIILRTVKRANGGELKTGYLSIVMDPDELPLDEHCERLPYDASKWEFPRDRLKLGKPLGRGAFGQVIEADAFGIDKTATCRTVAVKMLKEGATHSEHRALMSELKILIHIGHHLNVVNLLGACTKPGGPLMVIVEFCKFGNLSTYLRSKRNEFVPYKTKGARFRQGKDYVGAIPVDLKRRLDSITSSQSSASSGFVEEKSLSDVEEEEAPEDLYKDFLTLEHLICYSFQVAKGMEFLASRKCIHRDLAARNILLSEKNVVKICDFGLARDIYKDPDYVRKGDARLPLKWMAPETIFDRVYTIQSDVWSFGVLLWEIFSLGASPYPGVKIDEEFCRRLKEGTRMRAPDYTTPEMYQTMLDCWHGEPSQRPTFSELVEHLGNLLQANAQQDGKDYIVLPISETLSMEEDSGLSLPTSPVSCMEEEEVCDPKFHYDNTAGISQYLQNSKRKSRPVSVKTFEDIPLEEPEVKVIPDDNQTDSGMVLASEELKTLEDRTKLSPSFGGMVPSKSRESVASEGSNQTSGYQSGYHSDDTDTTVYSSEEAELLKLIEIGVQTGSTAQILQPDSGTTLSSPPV
# Method: We performed the study on both a HT-29 cancer cell line and a human microvessel endothelial cell line (HMEC-1). […] The effect of these selected derivatives on VEGFR-2, on HT-29 tumor cell line and on human microvessel endothelial cells (HMEC) was determined by flow cytometry technique. […] For these assays, cells were incubated for 24 h in the presence of the corresponding compounds at 10 µM concentration.
compound,measurement,setting,value
COc1ccc(/C=C\c2cccc(NC(=O)Nc3ccc(Br)cc3)c2)cc1 [Compound 16],IC50,[1],27 ± 8 µM
same,IC50,[2],12 ± 4 µM
same,IC50,[3],24 ± 7 µM
same,Minimum Active Conc. (inhibition of tube formation),[4],10 µM
same,PD-L1 (%) relative expression,[5],17 ± 5%
same,c-Myc (%) relative expression,[6],41 ± 10%
same,c-Myc (%) relative expression,[7],29 ± 5%
same,inhibition at 10 µM,"[8]; Homo sapiens, HT-29, co-cultured with Jurkat T-cells",~90%
same,Living HT-29 cell proliferation (%),"[8]; IFN-γ stimulated HT-29 co-cultured with Jurkat T cells, 10 µM, five experiments",9%
same,melting point,,173 °C
same,PD-L1 (%) relative expression,[9],23 ± 8%
same,Membrane VEGFR-2 (%),[10],45 ± 8%
same,Total VEGFR-2 (%),[10],59 ± 5%
